Like-named read-outs stand apart in the source and are kept apart here.
How the values were obtained:
[1] = Anti-inflammatory effect (carrageenin edema of hind paw); assay type: in vivo, Wistar-strain male rats; conditions: Rattus norvegicus, po, orally, rats, 3 hours, read-out: anti-inflammatory effect (inhibition percentage of carrageenin edema)
Description: 2. Anti-inflammatory effect
A group of five Wistar-strain male rats (100-150 g) were orally administered with each test compound suspended in 0.5 % tragacanth-saline solution. After 30 minutes 0.5 %-1.0 % carrageenin suspended in the water for injection was injected subcutaneously to a hind paw. After 3 hours the carrageenin edema was measured by volume and the inhibition percentage was determined with respect to the results for the control animals. The inhibition percentages were shown with the notations as follows: […]

[2] = tested on: dd-strain male mice; conditions: 72 hours
Description: The lethal dose was estimated from the death of animals 72 hours after administration.

[3] = Analgetic effect (acetic acid writhing syndrome); assay type: in vivo, dd-strain male mice; conditions: Mus musculus, ip, mice
[4] = Analgetic effect (acetic acid writhing syndrome); assay type: in vivo, dd-strain male mice; conditions: Mus musculus, po; orally, mice, acetic acid writhing
Description: Each test compound suspended in 0.5 % tragacanth-saline solution was orally administered to dd-strain male mice (18-20 g). After one hour 0.6% acetic acid solution was intraperitoneally injected in a volume of 0.1 ml/10 g.

| Structure (SMILES) | inhibition in vivo at 10 mg/kg [1] | inhibition in vivo at 50 mg/kg [1] | acute toxicity (lethal dose) ([2]; i.p.) | ED50 [3] | inhibition in vivo at 20 mg/kg ([1]; dose 20 mg/kg) | ED50 [4] | acute toxicity (lethal dose) ([2]; p.o.) | inhibition in vivo at 100 mg/kg ([1]; dose 100 mg/kg) |
| --- | --- | --- | --- | --- | --- | --- | --- | --- |
| Cc1c(N(C)C)c(=O)n(-c2ccccc2)n1C [aminopyrine, reference compound] | < 15% | < 15% | 100 to 300 mg/kg | 56 mg/kg |  |  |  |  |
| O=C(O)Cn1c(=O)c2cccnc2n(-c2cccc([N+](=O)[O-])c2)c1=O [Compound 26] |  | 31 to 45% | > 1000 mg/kg |  | 16 to 30% | 33 mg/kg | > 2000 mg/kg |  |
| O=c1c2cccnc2n(-c2cccc([N+](=O)[O-])c2)c(=O)n1CCc1ccccc1 [Compound 31] |  |  | > 1000 mg/kg |  |  | > 100 mg/kg | > 2000 mg/kg | < 15% |
| CCCn1c(=O)c2cccnc2n(-c2cccc([N+](=O)[O-])c2)c1=S [Compound 35] | 16 to 30% | 16 to 30% | > 1000 mg/kg |  |  | ~1000 mg/kg | > 2000 mg/kg |  |
